From patent US20220347306A1, “SELECTIVE DELIVERY OF THERAPEUTIC AND IMAGING AGENTS” (priority 2018, published 2022)

What was measured:
[1] = test system: HT1080 human fibrosarcoma subcutaneous tumor xenograft; experiment: Human fibrosarcoma tumor xenograft therapeutic model, tumor growth; format: in vivo, athymic nude mice; details: dosed at 0.6 to 3.0 mg/kg of cytotoxic payload component, intravenously twice 3 days apart, evaluated day 9
Experimental: (§1) Female athymic nude mice (8-10 weeks old) purchased from Charles River (Wilmington, 01887, MA) were used after 4-7 day of acclimatization period. […] Human fibrosarcoma tumor cells from ATCC (CCL-121™) were grown using standard cell culture techniques. Tumor cells (1×10^8 tumor cells/mL) were suspended in DPBS/Matrigel™ (1:1 vol) and implanted subcutaneously (50 μL tumor cell suspension/mouse) into the upper mammary fat pad or right flank of mice with individual identification number (ear tag). Four to seven days later when the average tumor volume was about 50-100 mm^3, mice were randomized into different experimental groups based on identical averaged (Mean±SEM) tumor volume and dosed with (i) vehicle and (ii) different doses of test compounds. For each involved tumor-bearing mouse, the tumor volume (mm^3) was measured using a caliper and calculated as follows: tumor volume=width^2×length/2. Test compounds were administered intravenously (tail vein) twice (two administrations 3 days apart) in conscious restrained tumor-bearing mice throughout the study. Individual tumor volume, body weight as well as clinical signs were recorded during the study. Each study was terminated on day 12 post-dosing initiation. […] For each experimental group and study day, the tumor volumes from all involved mice were averaged and expressed as Mean±SEM. […]

[2] = test system: HT1080 fibrosarcoma cells; experiment: Cancer cell viability assay using human HT1080 fibrosarcoma cells; format: cell-based; details: four days incubation, reduction of viable cells, SDM as such
Experimental: Method: Plate cells one day prior to start of assay in 96 well black with clear bottom plates (Corning #3603), 2×10^4 cells per well in 100 μL of standard growth media (according to ATCC). Grow cells to 90% confluency.
Before start of assay rinse cells IX with DPBS. Add compounds in a 3-fold serial dilution in triplicate (range e.g. 8.1 μM-3.7 nM), 100 μL per well in standard growth media.
Incubate four days then assay cell viability as described below. Remove media and rinse IX with DPBS, then add 100 μL per well 10% Prestoblue Cell viability reagent (Thermo Fisher Scientific #A13261) in complete media. Return to incubator for two hours then read plate on SpectraMax M2e, bottom read excitation 555 emission 585 cut-off 570 which measures number of live cells. […] In most cases, SDMs were also tested in activated form by pre-treatment with protease that activates the compound. […] In Table 9 this is represented as ACT SDM-200.

[3] = Body weight (tolerability and toxicity) in human HT1080 fibrosarcoma xenograft model; details: 1 mg/kg of the cytotoxic agent component, IV on days 0 and 3
Experimental: as §1

| Compound | Efficacy (percent tumor growth inhibition versus vehicle) [1] | EC50 [2] [nM] | Tolerability (FIG. 3B) [3] | Weight loss (body weight normalized to day 1, FIG. 3B) [3] [%] |
| --- | --- | --- | --- | --- |
| CC[C@H](C)C([C@@H](CC(=O)N1CCCC1[C@H](OC)[C@@H](C)C(=O)N[C@@H](Cc1ccccc1)C(=O)O)OC)N(C)C(=O)[C@@H](NC(=O)[C@H](C(C)C)N(C)C(=O)CNC(=O)[C@H](CCCNC(N)=O)NC(=O)[C@@H](NC(=O)[C@H](Cc1ccc(/C(C)=N\OCCCCCC(=O)N[C@@H](CC(=O)O)C(=O)NC(CC2CCCCC2)C(=O)NC(Cc2ccccc2)C(=O)N[C@H](CO)C(=O)N[C@H](CCCNC(N)N)C(=O)N[C@@H](Cc2ccc(O)cc2)C(=O)N[C@@H](CC(C)C)C(=O)N[C@@H](Cc2c[nH]c3ccccc23)C(=O)N[C@@H](CO)C(N)=O)cc1)NC(=O)CCCCCN1C(=O)C=CC1=O)C(C)C)C(C)C (some centres unmarked) [SDM-185] | Medium (Medium: ≥29% inhibition to < 80% inhibition) | < 300 | – | – |
| [2H]C(=O)OCc1ccc(NC(=O)[C@H](CCCNC(N)=O)NC(=O)[C@@H](NC(=O)CCCCCN2C(=O)C=CC2=O)C(C)C)cc1 [SDM-155] | – | – | not tolerated | > 20 |
| [2H]CC(NC(=O)C(CCCNC(=N)N)NC(=O)[C@H](CCCNC(=N)N)NC(=O)[C@@H](CCCNC(=N)N)NC(=O)[C@H](CCCNC(=N)N)NC(=O)[C@@H](CCCNC(=N)N)NC(=O)[C@H](CCCNC(=N)N)NC(=O)[C@@H](CCCNC(=N)N)NC(=O)[C@H](CCCNC(=N)N)NC(=O)C(CO)NC(=O)[C@H](CCCNC(=N)N)NC(=O)[C@H](Cc1c[nH]c2ccccc12)NC(=O)C(CC(C)C)NC(=O)C(C)NC(=O)[C@H](CC(C)C)NC(=O)[C@@H]1CCCN1C(=O)[C@H](CCCNC(=N)N)NC(=O)COCCNC(=O)C(Cc1ccc(C(C)=O)cc1)NC(=O)[C@@H](CCC(=O)O)NC(=O)[C@@H](CCC(=O)O)NC(=O)[C@@H](CCC(=O)O)NC(=O)[C@@H](CCC(=O)O)NC(=O)[C@@H](CCC(=O)O)NC(=O)CCN1C(=O)C=CC1=O)C(N)=O (some centres unmarked) [SDM-173] | High (High: ≥80% inhibition) | – | – | – |
